Active and inactive are the calls of the source.
Key:
Format in all cases: functional, cell-based
[1] = test system: MT4; assay: […] was evaluated against HIV-1 in MT-4 cells at concentration up to 10 ug/mL by indirect immunofluorescence assay; Inactive; conditions: Homo sapiens
[2] = test system: Vero; assay: Antiviral activity was evaluated against HSV-1 in Vero cells at concentration up to 10 ug/mL by plaque reduction assay; Inactive; conditions: Chlorocebus sabaeus
[3] = test system: Vero; assay: Antiviral activity was evaluated against HSV-2 in Vero cells at concentration up to 10 ug/mL by plaque reduction assay; Inactive; conditions: Chlorocebus sabaeus

Measured: Activity

Cc1cn(N2CC[C@H](CO)[C@H]2CO)c(=O)[nH]c1=O
inactive: all assays above

Nc1ncnc2c1ncn2N1CC[C@H](CO)[C@H]1CO
inactive: all assays above

From ChEMBL document CHEMBL1131537, “Synthesis of [(2'S, 3'S)-bis(hydroxylmethyl)pyrrolidin-1-yl] purine and pyrimidine nucleosides as potential antiviral agents” (Bioorg Med Chem Lett, 1998)
